Usually kinetic solubility stands for solubility judged after dilution from a stock solution rather than from solid. By IC50 is commonly meant the concentration needed to halve the response being measured. Low values mean greater potency, high ones weaker potency.

Where a name gives a salt, the structure may show the parent alone.

Data set [1] is described as follows: UV-VIS absorption spectra (optical property test). It is filed as physicochemical. Conditions: 10 μM, DMSO solution; for Absorbance × 10^4: at maximum absorption peak. Here is the method:
The UV-VIS absorption spectra of the compounds (10 μM, DMSO solution) were detected using Shimadzu UV2600 spectrophotometer, and the maximum absorption peak and absorbance of each compound were obtained.

Data set [2] has as its system human bladder cancer cell line UM-UC-3. The experiment in a line: In vitro imaging effect test with addition of BSP, UM-UC-3. The following applies: 250 μM BSP, compound 1-20 μM with surfactin 1:5, 30 minutes. Type of data set: cell-based. Here is the method:
UM-UC-3 (1.5×10^4/well) were cultured in EMEM medium (containing 10% fetal bovine serum (FBS) and 1% antibiotics (100 U/mL penicillin and 100 U/mL streptomycin)) and seeded in a 96-well plate in advance. The plate was cultured in a 5% CO2 cell culture incubator at 37° C. overnight. The following day, the culture medium was sucked away, and 250 μM of BSP was added to the test wells and preconditioned for 10 minutes, followed by addition of the culture medium containing an appropriate concentration (1-20 μM) of the compound and surfactin (the molar ratio of the test compound to the surfactin being 1:5) with or without 250 μM of BSP, and then incubated for 30 minutes. The cells were rinsed three times with PBS solution, and the near-infrared fluorescence intensity in the bladder cancer cells was observed using an integrated fluorescence microscopic imaging system from Keyence. The conditions for near-infrared photography were Ex=775/50 nm and Em=845/55 nm.

In data set [3] the test system is RT112 tumor. Conditions: 2 mg/kg or 0.4 mg/kg intraperitoneal, 48 hours after injection.
Method: All animal experiments were conducted exactly in accordance with the guidelines for the care and use of animals issued by the regional animal committee. A mouse model of xenograft RT112 tumor was established by subcutaneous injection of RT112 cell suspension (2×10^6 cells/mouse, 0.1 ml PBS) into the upper right limb of 8- to 10-week-old BALB/C female nude mice (20 to 25 g). BABL/c nude mice (15 to 20 g) were purchased from Beijing Vital River Laboratory Animal Technology Co., Ltd. For in vivo near-infrared fluorescence (NIRF) imaging, the RT112 tumor-bearing mice were intraperitoneally injected with different doses of free compounds (2 mg/kg or 0.4 mg/kg), respectively. At 48 hours after injection, near-infrared imaging was performed using an IVIS Lumina spectroscopic imaging system (excitation/emission, 780/845 nm).
A short description of data set [4]: Kinetic solubility in phosphate buffered saline (HPLC). Type of data set: physicochemical. The following applies: phosphate buffered saline (PBS), aqueous buffer, kinetic from dmso stock, 25° C., shaken 2 hours, from 10 mM DMSO stock. Here is the method:
The compounds were weighed in an appropriate amount and dissolved in DMSO to prepare a 10 mM stock solution. 30 μL of the stock solution was taken and 970 μL of phosphate buffered saline solution (PBS) was added thereto. The solution was shaken at 25° C. on a thermostatic mixer for 2 hours, and centrifuged at 12000 rpm for 10 minutes. The supernatant was taken, and the kinetic solubility of each compound in phosphate buffered saline solution (PBS) was determined by Waters Acquity Arc HPLC.

Data set [5] has as its target hERG channels (Homo sapiens, UniProt Q12809). The experiment in a line: hERG whole-cell patch clamp in HEK 293 cells stably expressing hERG. It is filed as cell-based. The following applies: HEK 293 stably expressing hERG, tail current. Here is the method: The HEK 293 cell line (K1236) stably expressing hERG was purchased from Invitrogen. Cells were cultured in 85% DMEM, 10% dialyzed FBS, 0.1 mM NEAA, 25 mM HEPES, 100 U/mL penicillin-streptomycin, 5 μg/mL blasticidin and 400 μg/mL geneticin. Cells were split using TrypLE™ about three times a week, and maintained at a confluence of about 40% to about 80%. Before measurement, cells were cultured at a density of 5×10^5 in a 6 cm culture dish and induced with 1 μg/mL doxycycline for 48 hours.
Extracellular solution (mM): 132 NaCl, 4 KCl, […], 0.5 MgCl2, 11.1 glucose, 10 HEPES (pH 7.35 adjusted with NaOH);
Intercellular solution (mM): 140 KCl, 2 MgCl2, 10 EGTA, 10 HEPES, 5 MgATP (pH 7.35 adjusted with KOH).
The test compounds were formulated in DMSO to prepare a stock solution with a final concentration of 10 mM.
Then, the stock solution of each compound was diluted with DMSO in a 1:3 serial dilution to prepare five intermediate solutions with concentrations of 3, 1, 0.33, 0.12, 0.04 mM or 3.33, 1.11, 0.37, 0.12 mM, respectively.
Before testing, the final working solutions were prepared by diluting the intermediate solutions 1000 times with the extracellular solution. The concentration of DMSO in the working solutions was within a range around 0.1%.
The working solutions at five different concentrations of 3, 1, 0.33, 0.12 and 0.04 μM were used to determine the potential inhibition effect of the compounds on hERG channels and to fit concentration-response curves and calculate IC50.
The coverslip was removed from the cell culture dish and placed on a microscope stage.
A 10× objective was used to locate cells to be observed. An electrode tip was located under the microscope using the 10× objective by focusing above the plane of the cells. Once the tip was in focus, the electrode was advanced downward towards the cells under rough control of the manipulator, while the objective was moved so as to keep the tip in focus.
When the electrode was directly over a cell, the objective was switched to a 40× objective and fine control of the manipulator was used to enable to gradually approach the cell surface.
With gentle suction through a side port of an electrode holder, a giga-ohm seal was formed.
Cfast was used to eliminate the capacitive current consistent with the voltage step. Brief and strong suction was applied repeatedly until the membrane patch ruptured and the whole-cell configuration was obtained.
At this point, membrane potential was set to −60 mV in order to ensure that hERG channels were not open. Then, Cslow on the amplifier was used to remove the spikes of capacitive current.
Holding potential was set to −90 mV for 500 ms. Current was recorded at 20 kHz and filtering was carried out at 10 kHz. Leak current was tested at −80 mV for 500 ms.
The hERG current was elicited by depolarizing at +30 mV for 4.8 seconds, and then the voltage was restored to −50 mV for 5.2 seconds to remove the inactivation and observe the deactivating tail current. The maximum of tail current size was used to determine hERG current amplitude.
Current was recorded for 120 seconds to evaluate the current stability. Only stable cells with recording parameters above thresholds were used for drug administrations.
Firstly, vehicle control was applied to the cells to establish the baseline. […] The hERG current in the presence of the test compound was recorded for about 5 minutes to reach a steady state, and then 5 sweeps were captured. For dose-response testing, multiple compounds were applied to the cells cumulatively from low to high concentrations (multiple compounds were detected simultaneously). The positive control, Dofetilide at a concentration of 150 nM, was also applied to each cell post hERG current measurement at the highest concentration of the test compound, which was used as an internal low control for normalization of percentage inhibition. […]

Data set [6] deals with RT112 tumor. In words: Tumor/background ratio in subcutaneous RT112 tumor model mice. It is filed as in vivo. Conditions: 2 mpk intraperitoneal, 48 hours after injection. The text has this:
The subcutaneous tumor model mice inoculated with RT112 tumor were selected. Each compound was administrated at a dose of 2 mpk, and intraperitoneally injected.

Sequence of hERG channels (Q12809 whole entry): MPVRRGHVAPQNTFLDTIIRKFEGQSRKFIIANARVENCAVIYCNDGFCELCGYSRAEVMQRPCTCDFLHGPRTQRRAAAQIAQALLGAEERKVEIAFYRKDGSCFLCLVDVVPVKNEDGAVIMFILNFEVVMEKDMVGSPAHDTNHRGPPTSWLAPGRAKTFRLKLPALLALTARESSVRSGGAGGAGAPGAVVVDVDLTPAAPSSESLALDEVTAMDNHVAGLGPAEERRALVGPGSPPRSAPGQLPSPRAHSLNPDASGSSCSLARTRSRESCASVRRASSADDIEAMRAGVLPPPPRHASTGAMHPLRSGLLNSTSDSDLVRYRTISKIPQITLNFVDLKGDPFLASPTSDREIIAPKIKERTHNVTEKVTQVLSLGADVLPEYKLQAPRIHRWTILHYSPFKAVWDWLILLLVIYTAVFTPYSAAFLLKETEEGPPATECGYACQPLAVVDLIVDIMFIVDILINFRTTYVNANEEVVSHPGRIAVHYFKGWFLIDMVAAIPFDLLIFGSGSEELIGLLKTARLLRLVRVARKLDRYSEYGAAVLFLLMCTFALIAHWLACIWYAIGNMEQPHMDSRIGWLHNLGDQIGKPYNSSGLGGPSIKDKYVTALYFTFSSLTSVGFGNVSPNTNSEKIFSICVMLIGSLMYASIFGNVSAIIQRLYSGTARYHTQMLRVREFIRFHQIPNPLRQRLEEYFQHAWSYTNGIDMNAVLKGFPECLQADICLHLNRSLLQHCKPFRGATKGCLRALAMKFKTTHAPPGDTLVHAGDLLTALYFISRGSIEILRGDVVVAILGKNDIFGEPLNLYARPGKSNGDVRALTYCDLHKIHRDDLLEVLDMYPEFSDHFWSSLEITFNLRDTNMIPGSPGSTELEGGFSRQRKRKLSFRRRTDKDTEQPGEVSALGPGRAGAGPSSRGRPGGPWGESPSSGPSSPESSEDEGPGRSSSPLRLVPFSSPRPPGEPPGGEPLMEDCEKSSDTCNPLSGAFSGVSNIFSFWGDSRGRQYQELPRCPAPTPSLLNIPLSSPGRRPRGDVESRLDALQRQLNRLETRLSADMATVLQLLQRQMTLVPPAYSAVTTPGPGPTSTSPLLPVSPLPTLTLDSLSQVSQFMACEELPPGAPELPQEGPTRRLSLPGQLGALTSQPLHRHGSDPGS

`CC[N+]1=C(/C=C/C2=C(Cl)C(=C/C=C3/N(CCOCCC(=O)Oc4ccccc4)c4ccccc4C3(C)C)/CCC2)C(C)(C)c2ccccc21` [Example 7, 2-((E)-2-((E)-2-chloro-3-(2-((E)-3,3-dimethyl-1-(2-(3-oxo-3-phenoxypropoxy)ethyl)indolin-2-ylidene)ethenyl)cyclohex-1-en-1-yl)ethenyl)-1-ethyl-3,3-dimethyl-3H-indol-1-ium Trifluoroacetate]: in data set [1], the Absorption peak is listed as 794.5 nm and the “Absorbance × 10^4” value worked out at 1.92. For the same molecule, in data set [2], the “Uptake by UM-UC-3 with or without BSP” value is recorded as “may be weakened or enhanced by BSP”. For the same molecule, the “Enrichment at the tumor sites (NIR fluorescence)” value (“Enrichment at the tumor sites” for short) in data set [3] was “specifically enriched at the tumor sites”.
`CC[N+]1=C(/C=C/C2=C(Cl)C(=C/C=C3/N(CCOCC(=O)Oc4ccccc4)c4ccccc4C3(C)C)/CCC2)C(C)(C)c2ccccc21` [Example 8, 2-((E)-2-((E)-2-chloro-3-(2-((E)-3,3-dimethyl-1-(2-(2-oxo-2-phenoxyethoxy)ethyl)indolin-2-ylidene)ethenyl)cyclohex-1-en-1-yl)ethenyl)-1-ethyl-3,3-dimethyl-3H-indol-1-ium Trifluoroacetate]: in data set [1], the Absorption peak turned out to be 794.5 nm and the “Absorbance × 10^4” value is listed as 1.96. In addition, in data set [2], the “Uptake by UM-UC-3 with or without BSP” value is “may be weakened or enhanced by BSP”. In data set [3], the “Enrichment at the tumor sites” value was “specifically enriched at the tumor sites”.
As to `C[N+]1=C(/C=C/C2=C(Cl)C(=C/C=C3/N(CCCCCC(=O)O)c4ccccc4C3(C)C)/CC2)C(C)(C)c2ccccc21` [Example 10, 2-((E)-2-((E)-3-(2-((E)-1-(5-carboxypentyl)-3,3-dimethylindolin-2-ylidene)ethenyl)-2-chlorocyclopent-1-en-1-yl)ethenyl)-1,3,3-trimethyl-3H-indol-1-ium Chloride], in data set [4], the solubility (kinetic) at 2 h was found to be 26 µg/mL. Besides, the IC50 in data set [5] was 1330 nM. In data set [1], the Absorption peak is on record as 821 nm and the “Absorbance × 10^4” value stood at 2.08. The “Uptake by UM-UC-3 with or without BSP” value in data set [2] is recorded as “may be weakened or enhanced by BSP”. In addition, in data set [6], the Tumor/background ratio is recorded as 3.3. In data set [3], the “Enrichment at the tumor sites” value is listed as “specifically enriched at the tumor sites”.

The values above are taken from US20260191998A1, “INDOLE PHTHALOCYANINE COMPOUND, PREPARATION METHOD THEREFOR, AND USE THEREOF IN TUMOR DIAGNOSIS IMAGING” (JIANGSU YAHONG MEDITECH CO., LTD., priority 2022, published 2026).
